Results published in patent publication US9458113B2 (Boehringer Ingelheim International GmbH, priority 2014, dated 2016).
pEC50, pIC50: −log10 of the molar value. ≈ marks a conversion by molar mass, not a printed value.

Key:
[1] = Metabolic stability with human liver microsomes; type: in vitro ADME; conditions: pH 7.6; pooled human liver microsomes, 1 μM test compound, 37° C.; read-out: t1/2 INVITRO
[2] = biological target: Human neutrophil elastase (Homo sapiens (Human), UniProt P08246); experiment: Human Neutrophil Elastase Assay; type: biochemical; conditions: substrate MeOSuc-Ala-Ala-Pro-Val-AMC 250 μM, pH 7.5
Human neutrophil elastase, sequence (P08246 30-247): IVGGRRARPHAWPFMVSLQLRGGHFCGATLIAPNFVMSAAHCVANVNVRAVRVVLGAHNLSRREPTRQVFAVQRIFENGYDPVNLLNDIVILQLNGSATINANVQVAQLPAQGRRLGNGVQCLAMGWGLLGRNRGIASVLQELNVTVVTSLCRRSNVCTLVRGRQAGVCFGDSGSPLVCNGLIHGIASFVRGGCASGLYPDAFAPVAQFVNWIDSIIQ
Experimental: The following buffers were used: Compound buffer: 100 mM Tris, 500 mM NaCl, adjusted to pH 7.5; Assay buffer: 100 mM Tris, 500 mM NaCl, adjusted to pH 7.5, containing 0.01% BSA.
Assay conditions: Test compounds were prediluted in DMSO and subsequently in compound buffer (5% DMSO final). […] After inactivation of the enzyme, fluorescence intensities were measured at 380 nm excitation and 460 nm emission wavelengths.
Each plate contains wells with a high value control (DMSO+enzyme+substrate) and wells with a low value control (DMSO+inactivated enzyme+substrate). IC50 values were estimated using a sigmoidal concentration response curve with variable slope. Means of low values were taken as 0%, means of high values as 100%.

[3] = Aqueous solubility (Shaked Flask Method); type: physicochemical; conditions: aqueous buffer, thermodynamic from solid, pH 6.8
Experimental: Assay for Determination of Aqueous Solubility (“Shaked Flask Method”)
Saturated solutions are prepared in well plates by adding an appropriate volume of selected aqueous media (typically in the range of 0.25-1.5 ml) into each well which contains a known quantity of solid drug substance (typically in the range 0.5-5.0 mg). The wells are shaken or stirred for a predefined time period (typically in a range of 2-24 h) and then filtered using appropriate filter membranes (typically PTFE-filters with 0.45 μm pore size). Filter absorption is avoided by discarding the first few drops of filtrate. The amount of dissolved drug substance is determined by UV spectroscopy or by HPLC with UV-detection. In addition, the pH of the aqueous saturated solution is measured using a glass-electrode pH meter.

[4] = Aqueous solubility (High Throughput Method); type: physicochemical; conditions: McIlvaine buffer pH 6.8 with 2.5% DMSO, kinetic from dmso stock, McIlvaine buffer pH 6.8, 2.5% DMSO, 24 h shaking
Experimental: Assay for Determination of Aqueous Solubility (“High Throughput Method”)
Starting from a […] DMSO stock solution, aliquots are diluted with acetonitrile/water (1/1) and McIlvaine buffer pH 6.8, respectively. After 24 h of shaking, the solutions or suspensions are filtered and analyzed by LC-UV. The amount dissolved in buffer is compared to the amount dissolved in the acetonitrile/water (1/1) solution. Solubility is measured from 0.001 to 0.125 mg/ml at a DMSO concentration of 2.5%. If more than 90% of the compound is dissolved in buffer, the value is marked with “>”.

[5] = biological target: neutrophil elastase in zymosan-stimulated human plasma (Homo sapiens (Human), UniProt P08246); experiment: Neutrophil elastase inhibitory activity in human plasma; type: biochemical; conditions: human plasma from zymosan-stimulated blood
neutrophil elastase in zymosan-stimulated human plasma, sequence (P08246 30-247): as above
Experimental: Assay for the Determination of Neutrophil Elastase Inhibitory Activity in Human Plasma
Citrated blood from human healthy donors is mixed with zymosan suspension and incubated at room temperature. This leads to the stimulation of neutrophils and the release of neutrophil elastase into the plasma. The stimulated blood is centrifuged to generate the neutrophil elastase enriched plasma.
Various concentrations of the neutrophil elastase inhibitor are incubated with plasma. […] A dose response curve is generated to calculate the EC50 of the inhibitor.

[6] = Drug transport across human Caco-2 cells; type: in vitro ADME; conditions: apparent permeability coefficient, Caco-2 monolayers, pH 7.2, 37° C.; for Papp A→B at 10 µM: apical-to-basal (absorptive), read-out: PEAB; for Papp B→A at 10 µM: basal-to-apical (secretory), read-out: PEBA
Excerpt: Assay for Determination of Drug Transport Across Human Caco-2 Cells
The assay provides information on the potential of a compound to pass the cell membrane, on the extent of oral absorption as well as on whether the compound is actively transported by uptake and/or efflux transporters. For the measurement of permeability across polarized, confluent human cancer colon carcinoma cells 2 (Caco-2) cell monolayers grown on permeable filter supports are used as the in vitro absorption model.
Apparent permeability coefficients (PE) of the compounds across the Caco-2 monolayers are measured (pH 7.2, 37° C.) in apical-to-basal (AB) (absorptive) and basal-to-apical (BA) (secretory) transport direction. AB permeability (PEAB) represents drug absorption from the intestine into the blood and BA permeability (PEBA) drug secretion from the blood back into the intestine via both passive permeability as well as active transport mechanisms mediated by efflux and uptake transporters that are expressed on the Caco-2 cells. The compounds are assigned to permeability/absorption classes by comparison of the AB permeabilities with the AB permeabilities of reference compounds with known in vitro permeability and oral absorption in the human. Identical or similar permeabilities in both transport directions indicate passive permeation, vectorial permeability points to additional active transport mechanisms. […] Active transport is concentration-dependently saturable.
Caco-2 cells (1-2*10^5 cells/cm^2 area) are seeded on filter inserts (Costar transwell polycarbonate or PET filters, 0.4 μm pore size) and cultured (DMEM) for 10 to 25 days. Compounds are dissolved in appropriate solvent (like DMSO, […] stock solutions). Stock solutions are diluted with HTP-4 buffer (128.13 mM NaCl, 5.36 mM KCl, 1 mM MgSO4, 1.8 mM CaCl2, 4.17 mM NaHCO3, 1.19 mM Na2HPO4x7H2O, 0.41 mM NaH2PO4xH2O, 15 mM HEPES, 20 mM glucose, pH 7.2) to prepare the transport solutions (typically 10 μM compound, final DMSO<=0.5%). The transport solution (TL) is applied to the apical or basolateral donor side for measuring A-B or B-A permeability (3 filter replicates), respectively. The receiver side contains HTP-4 buffer supplemented with 2% BSA. Samples are collected at the start and end of experiment from the donor and at various time intervals for up to 2 hours also from the receiver side for concentration measurement by LC-MS/MS or scintillation counting. Sampled receiver volumes are replaced with fresh receiver solution.
The apparent permeability coefficients (PEAB and PEBA) of selected compounds in the Caco-2 drug transport assay described above are listed in Table 16.

human hepatocytes = experiment: Metabolic stability with human hepatocytes; type: in vitro ADME; conditions: 1 μM test compound, well stirred model
Experimental: Assay for the Determination of Metabolic Stability with Human Hepatocytes
The metabolic degradation of the test compound is assayed in a human hepatocyte suspension. Human hepatocytes (typically cryopreserved) are incubated in an appropriate buffer system (e.g. Dulbecco's modified eagle medium plus 3.5 μg glucagon/500 mL, 2.5 mg insulin/500 mL and 3.75 mg/500 mL hydrocortison) containing 5% species serum. Following a (typically) […] preincubation in an incubator (37° C., 10% CO2), 5 μl of test compound solution (80 μM; from […] stock solution in DMSO diluted 1:25 with medium) are added into 395 μl hepatocyte suspension (cell density in the range 0.25-5*10^6 cells/mL, typically 1*10^6 cells/mL; final concentration of test compound 1 μM, final DMSO concentration 0.05%). The cells are incubated for six hours (incubator, orbital shaker) and samples (25 μl) are taken at 0, 0.5, 1, 2, 4 and 6 hours. Samples are transferred into acetonitrile and pelleted by centrifugation (5 min) The supernatant is transferred to a new 96-deepwell plate, evaporated under nitrogen and resuspended. The decline of parent compound is analyzed by LC-MS/MS.
The intrinsic clearance CL_[…] is calculated as follows: CL_[…]=Dose/AUC=(C0/CD)/(AUD+clast/k)*1,000/60
(C0: initial concentration in the incubation [μM], CD: cell density of vital cells [10^6 cells/mL], AUD: area under the data [μM*h], clast: concentration of last data point [μM], k: slope of the regression line for parent decline [h^−1])
The calculated in vitro hepatic intrinsic clearance Qh can be scaled up to the intrinsic in vivo hepatic clearance and used to predict hepatic in vivo blood clearance (CL) by the use of a liver model (well stirred model): CL_[…]_INVIVO [ml/min/kg]=(CL_[…] [μL/min/10^6 cells]*hepatocellularity [10^6 cells/g liver]*liver factor [g/kg bodyweight])/1,000 CL [ml/min/kg]=CL_[…]_INVIVO [ml/min/kg]*hepatic blood flow [ml/min/kg]/(CL_[…]_INVIVO [ml/min/kg]+hepatic blood flow [ml/min/kg]) Qh [%]=CL [ml/min/kg]/hepatic blood flow [ml/min/kg])
(Hepatocellularity, human: 120*10^6 cells/g liver; liver factor, human: 25.7 g/kg bodyweight; blood flow, human: 21 ml/(min*kg))
The calculated in-vitro hepatic intrinsic clearance values of selected compounds in the metabolic stability assay with human hepatocytes described above are listed in Table 15.

Row | SMILES | half-life at 1 μM [1] [h] | pIC50 [2] | solubility [3] [µg/mL] | solubility at 24 h [4] [µg/mL] | pEC50 [5] | Papp A→B at 10 µM [6] [×10⁻⁶ cm/s] | Papp B→A at 10 µM [6] [×10⁻⁶ cm/s] | Qh (human hepatocytes) [%]
1 | CN1C(=O)N(c2cccc(C(F)(F)F)c2)C2=C(C(=O)CCC2)[C@H]1c1ccc(C#N)cc1-c1ccn(C)c(=O)c1 [Example 20.b, 4-[3-Methyl-2,5-dioxo-1-(3-trifluoromethyl-phenyl)-1,2,3,4,5,6,7,8-octahydro-quinazolin-4-yl]-3-(1-methyl-2-oxo-1,2-dihydro-pyridin-4-yl)-benzonitrile] | > 2.17 | > 9.00 | > 10 | 72 (≈ 135 µM) | 9.00 |  |  | 
2 | CN1C(=O)N(c2cccc(C(F)(F)F)c2)C2=C(C(=O)CC2)C1c1ccc(C#N)cc1-c1cncnc1 (stereo not shown) [Example 21] | > 2.17 | 8.89 | > 10 | 50 (≈ 102 µM) | 8.70 | 52 | 67 | 23
3 | Cc1nnc(-c2cc(C#N)ccc2C2C3=C(CCC3=O)N(c3cccc(C(F)(F)F)c3)C(=O)N2C)o1 (stereo not shown) [Example 13.1, 4-[3-Methyl-2,5-dioxo-1-(3-trifluoromethyl-phenyl)-2,3,4,5,6,7-hexahydro-1H-cyclopentapyrimidin-4-yl]-3-(5-methyl-[1,3,4]oxadiazol-2-yl)-benzonitrile] | > 2.17 | 8.66 |  |  | 8.70 | 49 | 72 | 16
4 | CN1C(=O)N(c2cccc(C(F)(F)F)c2)C2=C(C(=O)CC2)[C@H]1c1ccc(C#N)cc1CNC1CCOCC1 [Example 25, 4-[(R)-3-Methyl-2,5-dioxo-1-(3-trifluoromethyl-phenyl)-2,3,4,5,6,7-hexahydro-1H-cyclopentapyrimidin-4-yl]-3-[(tetrahydro-pyran-4-ylamino)-methyl]-benzonitrile] | > 2.17 | 8.72 | > 10 |  | 8.15 | 16 | 96 | 20
5 | CN1C(=O)N(c2cccc(C(F)(F)F)c2)C2=C(C(=O)CC2)C1c1ccc(C#N)cc1-c1cnn(C)c1 (stereo not shown) [Example 11.2] | 2 | > 9.00 |  |  | 8.70 | 61 | 76 | 24
6 | CN1C(=O)N(c2cccc(C(F)(F)F)c2)C2=C(C(=O)CC2)C1c1ccc(C#N)cc1-c1ccncn1 (stereo not shown) [Example 22, 4-[3-Methyl-2,5-dioxo-1-(3-trifluoromethyl-phenyl)-2,3,4,5,6,7-hexahydro-1H-cyclopentapyrimidin-4-yl]-3-pyrimidin-4-yl-benzonitrile] | > 2.17 | 8.42 | > 10 | 83 (≈ 170 µM) | 8.22 | 52 | 77 | 12
7 | CNC(=O)c1cc(C#N)ccc1[C@@H]1C2=C(CCC2=O)N(c2cccc(C(F)(F)F)c2)C(=O)N1C [Example 2.1] | > 2.17 | 8.74 |  |  | 8.70 | 14 | 78 | 9
